Test results from patent US6403644B1, “Method of treating disease with sulfonylamino acid derivatives” (Ono Pharmaceutical Co., Ltd., priority 1995, dated 2002).

target: T1, gelatinase A (Homo sapiens, UniProt P08253); assay: Inhibitory activity against gelatinase A (FITC-labeled gelatin degradation); format: biochemical; conditions: progelatinase A from human normal skin dermal fibroblasts (HNDF), APMA-activated, 2 hours at 37° C., read-out: IC50 for inhibition of gelatinase A activity
T1 construct: endogenous in cells; host or cells: human normal skin dermal fibroblasts (HNDF)
T1 sequence (P08253 110-660): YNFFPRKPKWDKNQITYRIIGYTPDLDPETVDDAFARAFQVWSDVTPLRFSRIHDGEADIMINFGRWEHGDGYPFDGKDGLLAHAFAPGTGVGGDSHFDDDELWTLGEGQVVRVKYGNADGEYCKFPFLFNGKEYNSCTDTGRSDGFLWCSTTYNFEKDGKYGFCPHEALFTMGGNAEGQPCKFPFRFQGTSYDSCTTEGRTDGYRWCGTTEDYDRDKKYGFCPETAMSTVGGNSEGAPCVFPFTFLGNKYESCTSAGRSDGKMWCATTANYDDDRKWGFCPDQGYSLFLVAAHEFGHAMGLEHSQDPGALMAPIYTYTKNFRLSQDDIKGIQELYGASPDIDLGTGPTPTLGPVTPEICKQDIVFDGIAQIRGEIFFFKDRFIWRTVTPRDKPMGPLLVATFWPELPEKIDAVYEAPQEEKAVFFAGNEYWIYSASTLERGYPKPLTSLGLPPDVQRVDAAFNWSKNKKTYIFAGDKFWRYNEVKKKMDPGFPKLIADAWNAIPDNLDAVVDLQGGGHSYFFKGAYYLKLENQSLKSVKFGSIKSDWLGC
Method: The potency of inhibitory activity against each matrix metalloproteinases is confirmed as below. The IC50 value for inhibition of gelatinase A activity is determined as follows.
(1) Inhibitory activity against gelatinase A
The progelatinase A (7 μl; in assay buffer (90 μl)) was purified from human normal skin dermal fibroblasts (HNDF). It was activated by the addition of 10 mM of p-aminophenylmercuric acetate (APMA) (10 μl) for 1 hour at 37° C.
The solution of activated gelatinase A (7 μl/tube, 98 μl) was mixed with various concentrations of the test compound or dimethylsulfoxide (2 μl) and gelatin (100 μl) labeled with 0.05% fluorescein isothiocyanate (FITC) and incubated for 2 hours at 37° C. The reaction was terminated by the addition of 0.1M Tris-HCl (pH9.5) containing 94.7% ethanol (750 μl). The mixture was stirred and then allowed to stand for 30 minutes at 0° C. The mixture was centrifuged for 30 minutes at 900×g. The IC50 was determined by measuring the fluorescent intensity in supernatant (Ex=495 nm, and Em=520 nm).

Compound | IC50 [nM]
O=C(O)CNS(=O)(=O)c1ccc(NC(=O)c2ccccc2)cc1 [Example 2(10), N-[[4-(Benzoylamino)phenyl]sulfonyl]glycine] | 660
Cc1ccc(C(=O)Nc2ccc(S(=O)(=O)N[C@H](Cc3c[nH]c4ccccc34)C(=O)O)cc2)cc1 [Example 3(13), N-[[4-(p-Toluoylamino)phenyl]sulfonyl]-D-tryptophan] | 2.7
Cc1ccc(C(=O)Nc2ccc(S(=O)(=O)NCC(=O)O)cc2)cc1 [compound 2] | 110
O=C(O)CNS(=O)(=O)c1ccc(OC(=O)c2ccccc2)cc1 [compound 6] | 420

More lines, now with the values ahead:

IC50 [nM] | Compound
800 | O=C(O)CNS(=O)(=O)c1ccc(NC(=O)c2ccc(F)cc2)cc1 [Example 2(11), N-[[4-(4-Fluorobenzoylamino)phenyl]sulfonyl]glycine]
13 | CCCCCc1ccc(C(=O)Nc2ccc(S(=O)(=O)NCC(=O)O)cc2)cc1 [Example 2(35), N-[[4-(4-Pentylbenzoylamino)phenyl]sulfonyl]glycine]
2.3 | CCCCCc1ccc(C(=O)Nc2ccc(S(=O)(=O)N[C@H](Cc3ccccc3)C(=O)O)cc2)cc1 [Example 2(63), N-[[4-(4-Pentylbenzoylamino)phenyl]sulfonyl]-D-phenylalanine]
700 | N=C(N)c1ccc(OC(=O)c2ccc(S(=O)(=O)N[C@@H](Cc3ccccc3)C(=O)O)cc2)cc1 [Example 10(1), N-[[4-(4-Amidinophenoxycarbonyl)phenyl]sulfonyl]-L-phenylalanine methansulfonate]
